Broadly, the IC50 is the concentration that gives 50% inhibition.

For test [1], the system named is Escherichia coli. Put plainly: Compound was tested for inhibition of Escherichia coli growth. The test is classed as functional, organism-based.
Test [2] deals with Escherichia coli. Description: Compound was tested for inhibition of Escherichia coli dioxgen consumption. The test is classed as functional.

Regarding `C[N+]1(C)CC23c4c5c6c7c8c4c4c2c2c9c%10c%11c%12c(c5c5c6c6c%13c%14c%15c%16c%17c%18c%19c%20c%21c%22c%23c%24c%25c(c-%16c(c8c%25c4c%24c2c%22c9c2c%21c4c%19c(c%18%14)c8c%13c5c%12c8c4c%112)C7C%156)C%17C%23%20)C%103C1.C[N+]1(C)CC23c4c5c6c7c8c4c4c2c2c9c%10c%11c%12c(c5c5c6c6c%13c%14c%15c%16c%17c%18c%19c%20c%21c%22c%23c%24c%25c(c-%16c(c8c%25c4c%24c2c%22c9c2c%21c4c%19c(c%18%14)c8c%13c5c%12c8c4c%112)C7C%156)C%17C%23%20)C%103C1.[I-].[I-]` (stereo not given), inhibition in test [1] was half-maximal at 5 µM (IC50). This compound displayed a Dioxygen uptake rate in test [2] of 4.1 µM/min.

Regarding `C[N+]12CCN(CC1)C13c4c5c6c7c8c4c4c1c1c9c%10c%11c%12c(c5c5c6c6c%13c%14c%15c%16c%17c%18c%19c%20c%21c%22c%23c%24c%25c(c-%16c(c8c%25c4c%24c1c%22c9c1c%21c4c%19c(c%18%14)c8c%13c5c%12c8c4c%111)C7C%156)C%17C%23%20)C%1032` (stereo not given), the Dioxygen uptake rate in test [2] amounted to 13.7 µM/min.

Turning to `O=C(O)C1(C(=O)O)C23c4c5c6c7c8c9c%10c%11c%12c%13c%14c(c-5c5c%15c%16c(c%17c%18c2c2c4c7c4c8c7c%10c8c%10c%11c%11c%13c(c%14%15)c%13c%16c%14c%17c%15c%18c%16c2c4c2c7c8c4c(c%162)c%15c2c%14c%13c%11c%10c24)C513)C61C(C(=O)O)(C(=O)O)C9%121` (stereo not given), half-maximal inhibition in test [1] (IC50) required 100 µM. For the same compound, the Dioxygen uptake rate in test [2] is 42.2 µM/min.

Values taken from ChEMBL document CHEMBL1132036, “Inhibition of E. coli growth by fullerene derivatives and inhibition mechanism” (Bioorg Med Chem Lett, 1999).
